One block for each compound: values may come before it.
Assay: Solubility of selected drugs in menthol melt
Type: physicochemical
Procedure: The following general procedure was repeated with several drugs with menthol carrier.
Menthol (10 grams) was melted on a stirring hot plate with magnetic stirring, then heated to the desired temperature indicated in Table 1. The desired drug was added in small increments (0.1 grams) and stirred to obtain a clear solution. The desired drug was added in increments until no more drug dissolved in the menthol.

- Solubility in menthol (menthol melt, 63 °C): 40.0 % w/w
Structure (SMILES): CC[C@H]1OC(=O)[C@H](C)[C@@H](O[C@H]2C[C@@](C)(OC)[C@@H](O)[C@H](C)O2)[C@H](C)[C@@H](O[C@@H]2O[C@H](C)C[C@H](N(C)C)[C@H]2O)[C@](C)(O)C[C@@H](C)CN(C)[C@H](C)[C@@H](O)[C@]1(C)O [Azithromycin]

- Solubility in menthol (in menthol at 60° C. (text of Example 6)): 1%
- Solubility in menthol (menthol melt, 61 °C): 1.0 % w/w
Structure (SMILES): CCC(C)n1ncn(-c2ccc(N3CCN(c4ccc(OCC5COC(Cn6cncn6)(c6ccc(Cl)cc6Cl)O5)cc4)CC3)cc2)c1=O (stereo not shown) [Itraconazole]

- Solubility in menthol (menthol melt, 43 °C): 16.0 % w/w
Structure (SMILES): O=C(O)c1ccccc1O [Salicylic acid]

From patent US8663703B2, “Drug microparticles, processes of preparing them and a drug delivery vehicle comprising them” (Teva Pharmaceutical Industries, Ltd., priority 2002, dated 2014)
